From article PMC11001709, “Anti-toxoplasma activity and DNA-binding of copper(II) and zinc(II) coordination compounds with 5-nitroimidazole-based ligands” (Journal of Biological Inorganic Chemistry, 2023)

Columns and labels:
[1] = Distribution coefficient LogD7.4, shake-flask 1-octanol/MOPS buffer; type: physicochemical; conditions: octanol/water (MOPS buffer 10^–2 M), 25 °C, 3 h
Description: Solutions between 100 and 10 µM of the free ligands (cenz and onz) and the coordination compounds 3–10 were prepared in a MOPS buffer pH 7.4 as the aqueous phase and in 1-octanol as the organic phase. The absorption at 320 nm and 310 nm was determined for the aqueous and organic phase respectively by electronic spectroscopy (UV–Vis). Through a linear regression (concentration vs. absorption) the molar extinction coefficient of each compound in both phases was determined (Table 3). The lipophilicity was calculated in the 1-octanol/water system from the shake flask method using Eq. 1 [39]:1 […] where, Co is the final concentration in the organic phase and Cw is the final concentration in the aqueous phase (MOPS buffer at 10^–2 M pH 7.4). Both phases were presaturated with 50 µM solutions of the free ligands or 500 µM of each coordination compound and their UV spectrum was recorded. Both phases were combined and kept stirring for 3 h at 25 °C and in the absence of light. Subsequently, the mixture was centrifuged at 400g and the concentration in both phases was determined by UV–Vis spectroscopy using the Beer-Lambert law. The assays were performed in triplicate.
The T gondii parasite is an apicomplex organism; it requires a host cell to live, so it is important that the drugs used against the parasite have easy access to the cell. The lipophilicity of a compound is an important physicochemical property to determine its ability to permeate the biological membrane through passive diffusion; which usually is measured from the distribution coefficient logD7.4 = log(Co/Cw), in n-octanol/water. The shake-flask method was used to determine the LogD7.4 values from the molar extinction coefficients of the coordination compounds and the ligands in the two solvents (Table 3).

[2] = system: pBR322 plasmid DNA; assay: Agarose gel electrophoresis, DNA cleavage; type: biochemical
Description: Electrophoresis assays were performed in 1.5% agarose gel and 1× TBE buffer using the DNA plasmid pBR322. The plasmid (15 µM base pairs) was incubated with 10 and 50 μM concentrations of the coordination compounds for 1 h at 37 °C in presence and absence of ascorbic acid (50 μM) as reducing agent and hydrogen peroxide (500 µM) as ROS generator in a final volume of 20 μL. The DNA-cleaving compound [Cu(phen)2(H2O)](NO3)2 was used as reference. The samples were loaded into the gel with 4 μL of a loading buffer (30% glycerol, 5 mM xylene cyanol), and electrophoresis was performed in 1× TBE at 100 V for 1 h in a Bio-Rad horizontal tank. Subsequently, the gel was stained with SYBR™ Safe overnight and images were acquired with a Gel Doc EZ Imager instrument (Bio-Rad).
Distinct forms of pBR322 plasmid DNA are commonly observed by gel electrophoresis due to the conformational changes that present distinct electrophoretic mobility: (1) supercoiled DNA (Form I) that migrates faster on the gel, (2) circular nicked (Form II), obtained from a one-strand scission, has a slower migration through the gel and (3) linear form (Form III) is generated when both strands are cleaved and migrates between forms I and II [54]. The interaction of the free ligands and their copper(II) and zinc(II) coordination compounds with pBR322 was investigated in presence of H2Asc (50 μM) as reducing agent and H2O2 (500 μM) as ROS generator. Solutions of 10 and 50 µM of the coordination compounds were incubated with the DNA at 37 °C for 1 h.

[3] = system: ct-DNA; assay: Circular dichroism of ct-DNA; type: binding, calf; conditions: [DNA]b = 50 µM, [complex]/[DNA] 0-2, 1 h 37 °C
Description: For the UV–Vis, fluorescence and circular dichroism assays the concentration of ct-DNA was determined on a Varian Cary 100 Scan spectrophotometer from the absorption at 260 nm and the corresponding molar absorptivity of 6600 M^−1 cm^−1 (nucleobase concentration). The stock solutions of the coordination compounds and the free ligands were prepared in cacodylate/NaCl buffer (1 mM cacodylic acid and 20 mM sodium chloride) at pH 7.25. The final samples contained a DMSO concentration of 0.2%.
Circular dichroism (CD) spectra were recorded using a JASCO-815 spectropolarimeter, equipped with xenon-arc lamp of 450 W. The sample compartment was air-purged with N2 before use. For the measurements, a quartz cuvette with an optical path of 5 mm was used. A solution of 25 µM (in base pairs) of ct-DNA in cacodylate/NaCl buffer was incubated for 1 h at 37 °C with increasing amounts of coordination compounds (0–50 µM). The CD spectra were recorded at room temperature.
The interaction of small molecules with DNA can modify these CD signals depending on the type of binding. Intercalative interactions increase the intensity of the signals, as the result of an increase of the stability of the B conformation, whereas groove binding or covalent interactions tend to decrease the intensity of these signals, which are moreover displaced. The CD spectra for both ligands and their copper(II) and zinc(II) complexes were obtained at constant concentration of ct-DNA, increasing the complex concentration up to two equivalents ([complex]/[DNA] ratios of 0, 0.2, 0.4, 1, 2) with respect to the nucleobases concentration ([DNA]b = 50 µM).

[4] = compound 10 (mM in the source), + H2Asc
[5] = compound 10 (mM in the source), + H2Asc + H2O2
[6] = compound 10 (mM in the source), + H2O2
[7] = compound 10 (mM in the source), no additive
[8] = compound 50 (mM in the source), + H2Asc
[9] = compound 50 (mM in the source), + H2Asc + H2O2
[10] = compound 50 (mM in the source), + H2O2
[11] = compound 50 (mM in the source), no additive

| SMILES | LogD7.4 [1] | %Damage [2, 4] [%] | %Nicked [2, 4] [%] | %Supercoiled [2, 4] [%] | %Damage [2, 5] [%] | %Damage [2, 6] [%] | %Damage [2, 7] [%] | %Supercoiled [2, 7] [%] | %Damage [2, 8] [%] | %Damage [2, 9] [%] | %Damage [2, 10] [%] | %Damage [2, 11] [%] | %Nicked [2, 11] [%] | %Supercoiled [2, 11] [%] | effect on CD spectrum of ct-DNA (bands at 275 and 245 nm) [3] | %Nicked [2, 5] [%] | %Supercoiled [2, 5] [%] | %Nicked [2, 6] [%] | %Supercoiled [2, 6] [%] | %Nicked [2, 7] [%] | also measured |
| --- | --- | --- | --- | --- | --- | --- | --- | --- | --- | --- | --- | --- | --- | --- | --- | --- | --- | --- | --- | --- | --- |
| Cc1n(CC(O)CCl)c([N+](=O)[O-])c[n+]1[Cu-2]([Br])([Br])[n+]1cc([N+](=O)[O-])n(CC(O)CCl)c1C (centres unmarked) [[Cu(onz)2Br2]] | 0.56 | 44.70 | 35.60 | 55.30 | 100.00 | 100.00 | 7.80 | 92.20 | 100.00 | 100.00 | 100.00 | 6.70 | 23.00 | 93.30 | decrease of the intensity of the positive and negative bands | – | – | – | – | – | – |
| Cc1ncc([N+](=O)[O-])n1CCCl.Cc1ncc([N+](=O)[O-])n1CCCl.[Br][Zn][Br] [[Zn(cenz)2Br2]] | 0.82 | 28.40 | 6.40 | 71.60 | 89.00 | 19.30 | 6.20 | 93.80 | 96.10 | 78.40 | 98.40 | 11.60 | 2.20 | 88.40 | spectra changes are minor | 75.80 | 11.00 | 27.20 | 80.70 | 3.00 | %Nicked [2, 8]: 39.50%; %Supercoiled [2, 8]: 3.90%; %Nicked [2, 9]: 10.40%; %Supercoiled [2, 9]: 21.60%; %Nicked [2, 10]: 63.30%; %Supercoiled [2, 10]: 1.60% |
| Cc1ncc([N+](=O)[O-])n1CC(O)CCl.Cc1ncc([N+](=O)[O-])n1CC(O)CCl.[Cl-].[Cl-].[Cu+2] (centres unmarked) [[Cu(onz)2Cl2]] | 0.61 | 58.10 | 33.00 | 41.90 | 80.60 | 16.40 | 36.40 | 63.60 | 100.00 | 100.00 | 100.00 | 33.80 | 9.70 | 66.20 | decrease of the intensity of the positive and negative bands | 46.50 | 19.40 | 6.10 | 83.60 | 6.40 | – |
| Cc1ncc([N+](=O)[O-])n1CCCl.Cc1ncc([N+](=O)[O-])n1CCCl.[Br][Cu][Br] [[Cu(cenz)2Br2]] | 0.62 | 43.90 | – | 56.10 | 100.00 | 84.00 | 37.80 | 62.20 | 100.00 | 100.00 | 100.00 | 33.80 | 7.50 | 66.20 | decrease of the intensity of the positive and negative bands | – | – | 37.10 | 16.00 | 11.30 | – |
| Cc1ncc([N+](=O)[O-])n1CC(O)CCl.Cc1ncc([N+](=O)[O-])n1CC(O)CCl.[Cl][Zn][Cl] (centres unmarked) [[Zn(onz)2Cl2]] | 0.90 | 91.2 | 65.70 | 8.80 | 67.90 | 10.80 | 14.6 | 85.40 | 100 | 100.00 | 78.30 | 32.9 | 3.90 | 67.10 | spectra changes are minor | 44.00 | 32.10 | 5.90 | 89.20 | – | %Nicked [2, 8]: 4.80%; %Nicked [2, 10]: 47.60%; %Supercoiled [2, 10]: 21.70% |
| Cc1ncc([N+](=O)[O-])n1CCCl.Cc1ncc([N+](=O)[O-])n1CCCl.[Cl][Cu][Cl] [[Cu(cenz)2Cl2]] | 0.69 | 33.20 | 16.60 | 66.80 | 100.00 | 83.50 | 12.00 | 88.00 | 100.00 | 100.00 | 100.00 | 31.50 | – | 68.50 | decrease of the intensity of the positive and negative bands | – | – | 84.30 | 16.50 | – | – |
